Molecular target: Human factor D (Homo sapiens (Human), UniProt P00746)
Assay: Human Factor D Assay
Assay type: biochemical
Settings: Human factor D 80 nM, substrate Z-L-Lys-SBzl, assay of Example 12
In short: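 Serum-purified human factor D (80 nM final) was preincubated 5 min at room temperature with compound in 50 mM Tris, 1 M NaCl, pH 7.5. Z-L-Lys-SBzl and DTNB (100 μM each) were added and OD405 followed kinetically over 30 min; IC50 from non-linear regression of percent inhibition.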

Human factor D, sequence (P00746 26-253): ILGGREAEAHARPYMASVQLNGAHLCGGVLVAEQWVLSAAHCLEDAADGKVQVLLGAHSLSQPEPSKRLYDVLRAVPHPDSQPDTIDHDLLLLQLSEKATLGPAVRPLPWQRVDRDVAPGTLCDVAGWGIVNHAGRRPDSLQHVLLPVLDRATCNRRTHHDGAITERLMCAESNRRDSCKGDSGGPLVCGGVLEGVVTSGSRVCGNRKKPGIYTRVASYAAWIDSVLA

SMILES | IC50 [nM]
COC(=O)C#Cc1ccc2c(C(C)=O)cn(CC(=O)N3C[C@H](F)C[C@H]3C(=O)NCc3cccc(Cl)c3F)c2c1 [Compound 4, methyl 3-(3-acetyl-1-(2-((2S,4R)-2-(3-chloro-2-fluorobenzylcarbamoyl)-4-fluoropyrrolidin-1-yl)-2-oxoethyl)-1H-indol-6-yl)propiolate] | < 1000
NC(=O)c1nn(CC(=O)N2C[C@H](F)C[C@H]2C(=O)N2CCc3c([nH]c4ccccc34)C2)c2ccc(C#Cc3ncccn3)cc12 [Compound 31, 1-(2-((2S,4R)-4-fluoro-2-(2,3,4,9-tetrahydro-1H-pyrido[3,4-b]indole-2-carbonyl)pyrrolidin-1-yl)-2-oxoethyl)-5-(pyrimidin-2-ylethynyl)-1H-indazole-3-carboxamide] | > 10000
NC(=O)c1nn(CC(=O)N2C[C@H](F)C[C@H]2C(=O)Nc2cccc(-c3ccccc3Cl)c2F)c2ccc(C#Cc3ccnnc3)cc12 [Compound 79, 1-(2-((2S,4R)-2-(2′-chloro-2-fluorobiphenyl-3-ylcarbamoyl)-4-fluoropyrrolidin-1-yl)-2-oxoethyl)-5-(pyridazin-4-ylethynyl)-1H-indazole-3-carboxamide] | < 1000
NC(=O)c1nn(CC(=O)N2C[C@H](F)C[C@H]2C(=O)Nc2cccc(-c3cn[nH]c3)n2)c2ccc(C#Cc3ncccn3)cc12 [Compound 50, 1-(2-((2S,4R)-2-(6-(1H-pyrazol-4-yl)pyridin-2-ylcarbamoyl)-4-fluoropyrrolidin-1-yl)-2-oxoethyl)-5-(pyrimidin-2-ylethynyl)-1H-indazole-3-carboxamide] | < 1000
O=C(O)C#Cc1ccc2c(C(=O)C(F)(F)F)cn(CC(=O)N3C[C@H](F)C[C@H]3C(=O)NCc3cccc(Cl)c3F)c2c1 [Compound 11, 3-(1-(2-((2S,4R)-2-(3-chloro-2-fluorobenzylcarbamoyl)-4-fluoropyrrolidin-1-yl)-2-oxoethyl)-3-(2,2,2-trifluoroacetyl)-1H-indol-6-yl)propiolic acid] | < 1000
CC(=O)c1cn(CC(=O)N2C[C@H](F)C[C@H]2C(=O)NCc2cccc(Cl)c2F)c2ccc(C#CC(=O)O)cc12 [Compound 6, 3-(3-acetyl-1-(2-((2S,4R)-2-(3-chloro-2-fluorobenzylcarbamoyl)-4-fluoropyrrolidin-1-yl)-2-oxoethyl)-1H-indol-5-yl)propiolic acid] | < 1000
NC(=O)c1nn(CC(=O)N2C[C@H](F)C[C@H]2C(=O)Nc2cccc(C(F)(F)F)n2)c2ccc(C#Cc3ncccn3)cc12 [Compound 33, 1-(2-((2S,4R)-4-fluoro-2-(6-(trifluoromethyl)pyridin-2-ylcarbamoyl)pyrrolidin-1-yl)-2-oxoethyl)-5-(pyrimidin-2-ylethynyl)-1H-indazole-3-carboxamide] | < 1000
NC(=O)c1nn(CC(=O)N2[C@@H]3C[C@@H]3C[C@H]2C(=O)Nc2cccc(F)n2)c2ccc(C#Cc3ncccn3)cc12 [Compound 62, 1-(2-((1R,3S,5R)-3-(6-fluoropyridin-2-ylcarbamoyl)-2-azabicyclo[3.1.0]hexan-2-yl)-2-oxoethyl)-5-(pyrimidin-2-ylethynyl)-1H-indazole-3-carboxamide] | < 1000
NC(=O)c1nn(CC(=O)N2[C@@H]3C[C@@H]3C[C@H]2C(=O)Nc2cccc(Br)n2)c2ccc(C#Cc3ccc(C(F)(F)F)cn3)cc12 [Compound 59, 1-(2-((1R,3S,5R)-3-(6-bromopyridin-2-ylcarbamoyl)-2-azabicyclo[3.1.0]hexan-2-yl)-2-oxoethyl)-5-((5-(trifluoromethyl)pyridin-2-yl)ethynyl)-1H-indazole-3-] | < 1000
NC(=O)c1nn(CC(=O)N2C[C@H](F)C[C@H]2C(=O)Nc2cccc(Cl)c2F)c2ccc(C#Cc3ncccn3)cc12 [Compound 25, 1-(2-((2S,4R)-2-(3-chloro-2-fluorophenylcarbamoyl)-4-fluoropyrrolidin-1-yl)-2-oxoethyl)-5-(pyrimidin-2-ylethynyl)-1H-indazole-3-carboxamide] | < 1000

Source: patent US9828396B2, “Alkyne compounds for treatment of complement mediated disorders” (Achillion Pharmaceuticals, Inc., priority 2014, dated 2017)
